US20070196902A1, “Method of detecting AZT resistance in HIV” (University of Pittsburgh, priority 2006, published 2007)
Like-named read-outs stand apart in the source and are kept apart here.

Experiments:
HIV-1 RT D549N = conditions: D549N mutation; cited from earlier work
[1] = system: HIV-1 RT D549N with TAMs D67N, K70R, T215Y and K219Q; conditions: D549N present with TAMs D67N; cited from earlier work
[2] = system: HIVLAI containing the M41L/L210W/T215Y mutations (AZT^R HIVLAI) passaged in increasing concentrations of AZT; assay: AZT susceptibility of virus passaged in increasing AZT, selection starting with AZT^R HIVLAI; single-cycle assay in P4/R5 cells; assay type: cell-based, HIV-1; conditions: for Fold-Resistance: compared to wild-type passaged without AZT
Experimental: (§1) Selection of AZT-resistant viruses. Resistant virus was selected in two independent experiments by the passage of wild-type HIVLAI or HIVLAI containing the M41L/L210W/T215Y mutations (AZT^R HIVLAI) in MT-2 cells in increasing concentrations of AZT. To initiate each selection experiment, MT-2 cells (1×10^6) were pretreated for two hours with 0.5 μM and 25 μM AZT for wild-type HIVLAI and AZT^R HIVLAI, respectively, before virus was added. Viral replication was monitored by CPE. At +3/4 CPE (3 or 4 syncytia per field at 100× magnified field), cell-free supernatant was harvested and 0.1 ml of supernatant was added to fresh MT-2 cells to initiate a new passage. The concentration of AZT was doubled every three passages. The selection pressure was increased from an initial AZT concentration of 0.5 μM to a final concentration of 32 μM for wild-type HIVLAI, and from 25 μM to 150 μM for the AZT^R HIVLAI. The concentration of drug required to inhibit viral replication by 50% (IC50) was calculated every five passages to identify changes in AZT susceptibility, and fold-resistance was determined by dividing the IC50 of the mutant virus by the IC50 of wild-type HIV-1LAI. The genotype of the passaged virus was determined as described above.
(§2) Drug susceptibility assays. NRTI susceptibility was determined in P4/R5 cells as described previously (Parikh, U. M., et al. 2005. Antimicrob. Agents Chemother. 49:1139-44). Briefly, threefold dilutions of inhibitor were added to P4/R5 cells in triplicate and cells were infected with an amount of virus that produced 100 relative units of light (RLU) in no drug, virus control wells. After 48 hours, the cells were lysed (Gal-Screen; Tropix/Applied Biosystems, Foster City, Calif.) and the RLU was measured using a ThermoLabSystems luminometer (Waltham, Mass.). The IC50 and fold-resistance were calculated as described above. IC50 values from at least three independent experiments were log10 transformed and compared for statistically significant differences using the two-sample Student's t test.
(§3) Selection of AZT-resistant virus. Two independent AZT selection experiments were conducted. One starting with wild-type HIV-1LAI and the second starting with AZT HIV-1LAI (encoding M41L/L210W/T215Y). Both viruses were serially passaged in MT-2 cells in increasing concentrations of AZT. After every 5 passages, AZT susceptibility was measured in a single-cycle viral replication assay in P4/R5 cells (described in Materials and Methods). Viral RNA was extracted, converted to cDNA and the entire coding region of RT (residues 1-560) was PCR amplified and sequenced to monitor the appearance of mutations. In the selection experiment starting with HIV-1LAI, AZT susceptibility was reduced 66-fold by passage 35 and two polymerase domain TAMs were identified: D67N and K70R (Table 1).

[3] = system: HIV-1 RT mutants with A371V and/or Q509L, alone or in combination with TAMs; assay: Drug susceptibility of site-directed mutants, comparisons between mutants with and without A371V/Q509L; assay type: cell-based
[4] = system: HIV-1 RT A360I with "classic" TAMs; conditions: A360I present with "classic" TAMs; cited from earlier work
[5] = system: wild-type HIV-1LAI passaged in MT-2 cells in increasing concentrations of AZT; assay: AZT susceptibility of virus passaged in increasing AZT, selection starting with wild-type HIV-1LAI; single-cycle assay in P4/R5 cells; assay type: cell-based; conditions: for Fold-Resistance: compared to wild-type passaged without AZT
Experimental: as §1, §2, §3

HIV-1 RT H539N = conditions: H539N mutation; cited from earlier work
Wild-type HIVLAI = assay: Drug susceptibility assay in P4/R5 cells, recombinant virus; assay type: cell-based, HIV-1; conditions: Human immunodeficiency virus 1, P4/R5; Wild-type; mean ± SD, at least three experiments; read-out: IC50
Experimental: as §2
Construction of mutant recombinant HIV-1. Mutant recombinant plasmid clones of virus were generated by oligonucleotide site-directed mutagenesis as described previously (Shi, C., and J. W. Mellors. 1997. A recombinant retroviral system for rapid […] analysis of human immunodeficiency virus type 1 susceptibility to reverse transcriptase inhibitors. Antimicrob. Agents Chemother. 41:2781-5), using the p6HRT-MO plasmid. p6HRT-MO contains the entire RT and protease coding sequence as previously described (Le Grice, S. F., and F. Gruninger-Leitch. 1990. Rapid purification of homodimer and heterodimer HIV-1 reverse transcriptase by metal chelate affinity chromatography. Eur. J. Biochem. 187:307-14) and four silent restriction sites (Xma I, Mlu I, Xba I, and NgoM IV from the 5′ to 3′ end of RT at codons 14, 358, 490 and 554, respectively). After site-directed mutagenesis (QIAamp kit, QIAGEN, Valencia, Calif.), the mutated RT was ligated into pxxHIV-1LAI MO that contains the entire genome of HIV-1LAI and the same silent restriction sites as p6HRT-MO. Infectious virus was generated by electroporating the mutated xxHIV-1LAI MO plasmid into MT-2 cells as described above. All mutations in recombinant viruses were confirmed by full-length sequencing of the entire RT coding region.

[6] = system: HIV-1 RT G335C with "classic" TAMs; conditions: G335C present with "classic" TAMs; cited from earlier work

Cc1cn([C@H]2C[C@H](N=[N+]=[N-])[C@@H](CO)O2)c(=O)[nH]c1=O [AZT, 3′-azido-3′-dideoxythymidine]
increase in resistance (reduced susceptibility) (HIV-1 RT D549N): 12 fold | increase in resistance [1]: 1,230 fold | IC50 ([2]; Human immunodeficiency virus 1, P4/R5, passage 1, AZT concentration 25 μM): 21 µM | IC50 ([2]; Human immunodeficiency virus 1, P4/R5, passage 10, AZT concentration 50 μM): 34 µM | IC50 ([2]; Human immunodeficiency virus 1, P4/R5, passage 25, AZT concentration 100 μM, M41L, D67D/N, L210W, L214F, T215Y): 126 µM | IC50 ([2]; Human immunodeficiency virus 1, P4/R5, passage 30, AZT concentration 150 μM, M41L, D67D/N, L210W, L214F, T215Y): 181 µM | IC50 ([2]; Human immunodeficiency virus 1, P4/R5, passage 35, AZT concentration 150 μM, M41L, D67N, L210W, L214F, T215Y): > 810 µM | Fold-Resistance ([2]; passage 25, M41L, D67D/N, L210W, L214F, T215Y): 39 fold | Fold-Resistance ([2]; passage 30, M41L, D67D/N, L210W, L214F, T215Y): 62 fold | greater AZT resistance conferred by T215F than T215I ([3]; T215F versus T215I): ~25 fold | AZT resistance conferred by A371V and Q509L, alone or together ([3]; in the absence of TAMs): did not confer AZT resistance | reduction of AZT susceptibility [4]: 30 fold | IC50 ([5]; Human immunodeficiency virus 1, MT2, passage 1, AZT concentration 0.5 μM, read-out: IC50): 0.2 µM | IC50 ([5]; Human immunodeficiency virus 1, MT2, passage 10, AZT concentration 0.5 μM, read-out: IC50): 0.3 µM | IC50 ([5]; Human immunodeficiency virus 1, MT2, passage 20, AZT concentration 0.5 μM, read-out: IC50): 0.7 µM | IC50 ([5]; Human immunodeficiency virus 1, MT2, passage 25, AZT concentration 1.0 μM, mutations: None, read-out: IC50): 0.7 µM | IC50 ([5]; Human immunodeficiency virus 1, MT2, passage 30, AZT concentration 2.0 μM, D67D/N, K70K/R, read-out: IC50): 3 µM | IC50 ([5]; Human immunodeficiency virus 1, MT2, passage 35, AZT concentration 2.0 μM, D67N, K70R, read-out: IC50): 10 µM | IC50 ([5]; Human immunodeficiency virus 1, MT2, passage 40, AZT concentration 4.0 μM, D67N, K70R, A371A/V, Q509Q/L, read-out: IC50): 10 µM | IC50 ([5]; Human immunodeficiency virus 1, MT2, passage 55, AZT concentration 16 μM, D67N, K70R, T215T/I, A371A/V, Q509Q/L, read-out: IC50): 39 µM | IC50 ([5]; Human immunodeficiency virus 1, MT2, passage 60, AZT concentration 32 μM, D67N, K70R, T215I, A371A/V, Q509L, read-out: IC50): 56 µM | IC50 ([5]; Human immunodeficiency virus 1, MT2, passage 65, AZT concentration 32 μM, D67N, K70R, T215I/F, A371A/V, Q509L): ≥ 810 µM | Fold-Resistance ([5]; passage 25, mutations: None): 4.1 fold | Fold-Resistance ([5]; passage 30, D67D/N, K70K/R): 26 fold | Fold-Resistance ([5]; passage 35, D67N, K70R): 66 fold | Fold-Resistance ([5]; passage 40, D67N, K70R, A371A/V, Q509Q/L): 86 fold | Fold-Resistance ([5]; passage 55, D67N, K70R, T215T/I, A371A/V, Q509Q/L): 255 fold | Fold-Resistance ([5]; passage 60, D67N, K70R, T215I, A371A/V, Q509L): 489 fold | increase in resistance (reduced susceptibility) (HIV-1 RT H539N): 180 fold | IC50 (Wild-type HIVLAI): 0.2 ± 0.1 µM | reduction of AZT susceptibility [6]: 30 fold
